Measurements as given in patent US7345065B2, “Methods and compositions for alleviating pain” (Allergan, Inc., priority 2002, dated 2008).
pKi: −log10 of the molar value.

What was measured:
Bennett model rats = experiment: Bennett partial sciatic nerve ligation model, cold allodynia; format: in vivo, rat; conditions: osmotic minipump 0.1 mg/hr/kg for four days; during treatment and more than three weeks following pump removal
Description: The α-2B/C selective agonist Compound 8 was tested in a second rat nerve injury model of neuropathic pain, the Bennett partial sciatic nerve ligation model. This rat model produces a peripheral mononeuropathy with disorders of pain sensation similar to those seen in man (Bennett and Xie, Pain 33:87-107 (1988)). In the Bennett model, nerve injury is created by loosely tying constrictive ligatures around the sciatic nerve, causing degeneration of nerve distal to the constriction. Allodynia and hyperalgesia are produced by the constriction injury in addition to spontaneous pain (Bennett and Xie, supra, 1988). In particular, cold allodynia, the sensation of pain from cold stimuli, is one manifestation of altered pain sensation: Bennett model animals frequently lift the paw of the surgical limb off the cold surface, in contrast to control animals.
Bennett surgeries of about 20 minute duration were performed as follows. […]
Chronic drug administration was achieved via an osmotic minipump, which was implanted subcutaneously on the back of the rat one week after the Bennett surgery as described above. […] To assess response to thermal stimuli, rats were placed under a clear plastic chamber (18 cm×29 cm×12.5 cm) on a chilled (0-4° C.) metal floor, which is not noxious to a normal animal, and the time that the surgical paw was raised off of the cold floor recorded over a 5 minute period. […]

[1] = Plasma concentration by LC-MS/MS during and after minipump dosing; format: in vivo, rat; conditions: 0.1 mg/kg/hour minipump for seven days
Description: To determine whether the persistent reversal of allodynia was due to the continued presence of drug in the animals, rats were treated for seven days using a subcutaneous osmotic minipump with 0.1 mg/kg/hour Compound 8. Plasma concentrations of Compound 8 were sampled on days 3, 6, 8, 10 and 14 following pump insertion and determined by liquid chromatography-mass spectrometry/mass spectrometry (LC-MS/MS).

[2] = system: α-2B heterozygous (−/+) and homozygous (−/−) knockout mice; experiment: Sulprostone sensitized pain (allodynia), α-2B knockout mice; format: in vivo, mouse; conditions: intraperitoneal; heterozygous and homozygous α-2B knockout; clonidine 500 ug/kg, Compound 3 100 ug/kg
[3] = system: Sprague Dawley rats, normal and sensitized; experiment: Rat model of irritable bowel syndrome (chronic visceral hypersensitivity), EMG response to colorectal distension; format: in vivo
From the text: A well-accepted model of chronic visceral hypersensitivity is described in Al-Chaer et al., Gastroenterology 119:1276-85 (2000). In brief, colons of neonatal male Sprague Dawley rats were sensitized by repeated inflation of a colonic balloon on postnatal days 8 to 21, with colonic balloons inflated to pressures ranging from 20-80 mm Hg. Three months later, the abdominal withdrawal reflex (AWR) response of the adult rats to graded colorectal distension (CRD) was quantified by electromyography (EMG) recording from the abdominal wall muscle. […] Each level of CRD was administered for 20 seconds every four minutes and repeated for a total of five times.
Groups of 8-10 normal and sensitized adult Sprague Dawley rats (approximately 3 months old) were implanted with subcutaneous minipumps to deliver either 50% DMSO or Compound 8 in 50% DMSO at a dose of 100 ug/kg/hr over a period of 7 days. The abdominal withdrawal reflex to a graded series of colorectal distensions (20, 40, 60, 80 mm Hg) was measured by abdominal EMG recording prior to pump implantation, on days 2 and 5 of the subcutaneous infusion, and 2 days, 1 week, 2 weeks, and 4 weeks after the pumps were removed.

Chung model rats = experiment: Chung rat nerve ligation model, tactile allodynia reversal (Von Frey); format: in vivo
Description: The Chung rat nerve ligation model is a well accepted model of peripheral neuropathic pain. In the Chung model, partial ligation of left spinal nerves L-5 and L-6 produces a long-lasting hypersensitivity to light touch on the affected left foot. The hypersensitivity is similar to pain experienced by humans with the neuropathic condition of causalgia (Kim and Chung, Pain 50:355-363 (1992)).
Chung rat surgeries of about 20 minutes duration were performed essentially as follows. Male Sprague-Dawley rats weighing 100 to 120 grams were anesthetized with isofluorane. After shaving and preparing the surgical site with betadine, an incision was made from thoracic vertebra XIII down toward the sacrum, and muscle separated from spinal vertebra (left side) at the L4-S2 levels. The L6 vertebra were located, and the transverse process carefully removed with a small rongeur to visually identify the L4-L6 spinal nerves. L5 and L6 spinal nerves were isolated and tightly ligated with 6-0 silk thread; the wound was sutured after complete hemostasis was confirmed. A small amount of antibiotic ointment was applied to the incised area before transferring the animals to a plastic recovery cage under a regulated heat-temperature lamp. Animals were not treated with any topical or local anesthetics post-operatively.
Assessment of pain in Chung model rats was performed by applying a light tactile stimulus (Von Frey hair) to the affected surgical paw as follows. A 50% pain threshold was established by applying the Von Frey hair in an up-and-down manner to the plantar surface of the surgical paw with just enough force to bend them. A positive response was recorded if the paw was withdrawn sharply. The 50% paw withdrawal threshold was determined using the method of Dixon et al., Ann. Rev. Pharmacol. Toxicol. 20:441-462 (1980). The post-drug threshold was compared to the pre-drug threshold, and the precent reversal of tactile sensitivity calculated based on a normal threshold of 15.1 grams. The results were expressed as % allodynia reversal, reflecting the percentage reversal of pain threshold relative to a normal rat (100%).
Chung surgeries were performed, and pain assessed as described above. Drugs administered via osmotic minipump were delivered as follows. ALZET (Cupertino, Calif.) minipumps (Model #1007D) were implanted subcutaneously on the rats' back between the shoulder blades. Pumps were filled with test solution prior to surgery, which was performed with aseptic procedures and sterilized surgical instruments. After anesthetization with isoflorane and midline incision between the shoulder blades through the muscle, a subcutaneous pocket was exposed. The minipump was inserted into the exposed pocket, before stapling the wounds closed and allowing animals to recover under a warming light.
ALZET osmotic minipumps (model 1007D) hold a total volume of 100 μl and delivered drug at the set rat of 0.5 μl per hour the indicated time period. Drugs were administered at the indicated rate, typically 100 μg/hr/kg, dissolved in 50% DMSO, with the concentration of drug in the pump varied depending on animal weight. […]

α-2A = target: T1, α-2A (Homo sapiens, UniProt P08913); experiment: Ki at α-2A; format: binding
T1 sequence (P08913 1-465): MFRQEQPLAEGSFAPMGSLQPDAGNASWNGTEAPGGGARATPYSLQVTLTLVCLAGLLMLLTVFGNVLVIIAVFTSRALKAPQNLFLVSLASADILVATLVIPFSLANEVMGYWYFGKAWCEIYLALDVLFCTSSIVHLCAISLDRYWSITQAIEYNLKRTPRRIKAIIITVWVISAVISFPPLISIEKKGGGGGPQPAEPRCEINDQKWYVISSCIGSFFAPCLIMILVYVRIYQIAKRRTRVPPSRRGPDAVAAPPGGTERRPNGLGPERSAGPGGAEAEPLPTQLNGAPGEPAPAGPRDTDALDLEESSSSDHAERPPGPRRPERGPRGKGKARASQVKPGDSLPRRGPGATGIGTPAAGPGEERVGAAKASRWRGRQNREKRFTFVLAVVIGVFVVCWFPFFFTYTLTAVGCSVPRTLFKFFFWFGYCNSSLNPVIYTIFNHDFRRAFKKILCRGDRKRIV

rat α-2B (RNG gene) = target: T2, rat α-2B (RNG gene) (Rattus norvegicus, UniProt P19328); experiment: RSAT assay, α-2B receptor; format: cell-based
T2 construct: expressed in transfected cells; host or cells: NIH-3T3
T2 sequence (P19328 1-453): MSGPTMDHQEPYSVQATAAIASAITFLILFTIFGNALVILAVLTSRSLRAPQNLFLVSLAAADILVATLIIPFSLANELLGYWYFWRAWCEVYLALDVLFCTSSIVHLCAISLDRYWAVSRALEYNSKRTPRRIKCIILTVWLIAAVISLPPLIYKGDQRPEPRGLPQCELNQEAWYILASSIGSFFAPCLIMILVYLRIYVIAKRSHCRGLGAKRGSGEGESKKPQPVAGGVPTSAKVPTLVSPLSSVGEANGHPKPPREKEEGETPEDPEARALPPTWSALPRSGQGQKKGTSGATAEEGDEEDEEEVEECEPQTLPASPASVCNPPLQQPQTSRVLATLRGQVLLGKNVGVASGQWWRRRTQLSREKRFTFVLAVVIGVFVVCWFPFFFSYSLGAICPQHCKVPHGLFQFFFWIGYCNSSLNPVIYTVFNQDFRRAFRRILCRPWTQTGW
From the text: Agonist and antagonist activity, including selectivity and specificity, can be characterized using any of a variety of routine assays, including, without limitation, Receptor Selection and Amplification Technology (RSAT) assays (Messier et al., Pharmacol. Toxicol. 76:308-11 (1995); Conklin et al., Nature 363:274-6 (1993)); cyclic AMP assays (Shimizu et al., J. Neurochem. 16:1609-1619 (1969)); and cytosensor microphysiometry assays (Neve et al., J. Biol. Chem. 267:25748-25753 (1992)). Such assays generally are performed using cells that naturally express only a single α-adrenergic receptor subtype, or using transfected cells expressing a single recombinant α-adrenergic receptor subtype. The adrenergic receptor can be a human receptor or homolog thereof having a similar pharmacology. As disclosed herein, RSAT assays were performed using cells transiently transfected with human α-2A (c10 gene); rat α-2B (RNG gene); human α-2C (c4 gene); bovine α-1A; hamster α-1B; and rat α-1D.
The RSAT assay measures receptor-mediated loss of contact inhibition resulting in selective proliferation of receptor-containing cells in a mixed population of confluent cells. The increase in cell number is assessed with an appropriate detectable marker gene such as β-galactosidase, if desired, in a high throughput or ultra high throughput assay format. Receptors that activate the G protein, Gq, elicit the proliferative response. α-adrenergic receptors, which normally couple to Gi, activate the RSAT response when coexpressed with a hybrid Gq protein containing a Gi receptor recognition domain, designated Gq/i5.
As an example, an RSAT assay can be performed essentially as follows. NIH-3T3 cells are plated at a density of 2×10^6 cells in 15 cm dishes and maintained in Dulbecco's modified Eagle's medium supplemented with 10% calf serum. One day later, cells are cotransfected by calcium phosphate precipitation with mammalian expression plasmids encoding p-SV-β-galactosidase (5-10 μg), receptor (1-2 μg) and G protein (1-2 μg). Carrier DNA, for example 40 μg salmon sperm DNA, also can be included to increase transfection efficiency. Fresh media is added on the following day; one to two days later, cells are harvested and frozen in 50 assay aliquots. Transfected cells are thawed, and 100 μl of cells added to 100 μl aliquots of compound to be tested, with various concentrations assayed in triplicate, for example, in 96-well plates. Incubation continues for 72 to 96 hours at 37°. After washing with phosphate-buffered saline, β-galactosidase activity is determined by adding 200 μl of chromogenic substrate (3.5 mM O-nitrophenyl-β-D-galactopyranoside/0.5% NP-40 in phosphate buffered saline), incubating overnight at 30°, and measuring optical density at 420 nm. The absorbancy is a measure of enzyme activity, which depends on cell number and reflects receptor-mediated cell proliferation. The EC50 and maximal effect (efficacy) of each drug at each receptor is determined.

[4] = subcutaneous osmotic minipump 0.1 mg/kg/hour, seven days

With `OCCNC(=S)NCc1cccc(Cl)c1F` [Compound 8] the cold allodynia (Bennett model rats) was “completely alleviated”, the “plasma drug level, day 10” value ([1]; day 10 following pump insertion) was “minimal drug levels were detected” and the “plasma drug level, day 14” value ([1]; day 14 following pump insertion) was “no drug remained in the plasma”. The “analgesic effect in α-2B knockout mice” value [2] was “failed to show analgesic activity”, the “EMG response, non-sensitized control rats” value ([3]; 100 ug/kg/hr subcutaneous minipump, 7 days) was “did not change significantly from pre-treatment levels” and the “pain (EMG intensity) in sensitized rats after treatment” value ([3]; 100 ug/kg/hr subcutaneous minipump, 7 days, CRD 20-80 mm Hg) was 0 to 1.5. For the same molecule, the “increased EMG response in sensitized rats” value ([3]; 100 ug/kg/hr subcutaneous minipump, 7 days, during and following treatment) was “completely alleviated”, the “return of colorectal allodynia and hyperalgesia” value ([3]; 4 weeks following cessation of drug treatment) was “did not return during the time period tested” and the “allodynia during follow-up testing” value (Chung model rats; after oral 0.3 mg/kg three times a day for three days) was “allodynia did not increase during a more than three week period of follow-up testing”. The “allodynia on the morning of day 4” value (Chung model rats; oral 0.3 mg/kg three times a day for three days) was “allodynia was dramatically reduced”, the “allodynia prior to the first dose of the morning, days 2 and 3” value (Chung model rats; oral 0.3 mg/kg three times a day for three days, about 14 hours after the last dose) was “complete tactile allodynia” and the reversal of allodynia (Chung model rats; oral gavage, three doses of 0.3 mg/kg per day for three consecutive days) was 70-80%. The “allodynia alleviated during the period of drug treatment” value (Chung model rats; [4]) was 90-100% and the “persistence of analgesic effects after treatment” value (Chung model rats; [4]) was “continued for over a month after treatment was concluded”.
With `c1nc(CC2CCc3sccc3C2)c[nH]1` (stereo not shown) [Compound 13] the pKi (α-2A) was ~10.10 and the “efficacy at α-2B relative to brimonidine” value (rat α-2B (RNG gene)) was “about 40%”.
